According to article PMC3189488 (British journal of haematology, 2010):

Tests used:
human HDAC8 = target: T1, human HDAC8 (Homo sapiens, UniProt Q9BY41); assay: HDAC enzyme assay in vitro, HDAC8; conditions: cell-free, purified enzyme
T1 sequence (Q9BY41 1-377): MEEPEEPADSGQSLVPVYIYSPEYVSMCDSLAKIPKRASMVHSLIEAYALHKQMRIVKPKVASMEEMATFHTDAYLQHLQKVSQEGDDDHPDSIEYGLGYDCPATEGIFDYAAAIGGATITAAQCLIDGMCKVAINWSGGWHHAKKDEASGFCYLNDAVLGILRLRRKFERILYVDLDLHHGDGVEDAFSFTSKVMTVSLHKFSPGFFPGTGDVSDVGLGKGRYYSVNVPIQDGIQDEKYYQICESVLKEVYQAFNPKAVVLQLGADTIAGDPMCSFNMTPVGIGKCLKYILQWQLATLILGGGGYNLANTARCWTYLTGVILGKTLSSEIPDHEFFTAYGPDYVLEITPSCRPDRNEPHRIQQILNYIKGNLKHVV

human HDAC6 = target: T2, human HDAC6 (Homo sapiens, UniProt Q9UBN7); assay: HDAC enzyme assay in vitro, HDAC6; assay type: biochemical; conditions: cell-free, purified enzyme; Fig S1
T2 sequence (Q9UBN7 1-1215): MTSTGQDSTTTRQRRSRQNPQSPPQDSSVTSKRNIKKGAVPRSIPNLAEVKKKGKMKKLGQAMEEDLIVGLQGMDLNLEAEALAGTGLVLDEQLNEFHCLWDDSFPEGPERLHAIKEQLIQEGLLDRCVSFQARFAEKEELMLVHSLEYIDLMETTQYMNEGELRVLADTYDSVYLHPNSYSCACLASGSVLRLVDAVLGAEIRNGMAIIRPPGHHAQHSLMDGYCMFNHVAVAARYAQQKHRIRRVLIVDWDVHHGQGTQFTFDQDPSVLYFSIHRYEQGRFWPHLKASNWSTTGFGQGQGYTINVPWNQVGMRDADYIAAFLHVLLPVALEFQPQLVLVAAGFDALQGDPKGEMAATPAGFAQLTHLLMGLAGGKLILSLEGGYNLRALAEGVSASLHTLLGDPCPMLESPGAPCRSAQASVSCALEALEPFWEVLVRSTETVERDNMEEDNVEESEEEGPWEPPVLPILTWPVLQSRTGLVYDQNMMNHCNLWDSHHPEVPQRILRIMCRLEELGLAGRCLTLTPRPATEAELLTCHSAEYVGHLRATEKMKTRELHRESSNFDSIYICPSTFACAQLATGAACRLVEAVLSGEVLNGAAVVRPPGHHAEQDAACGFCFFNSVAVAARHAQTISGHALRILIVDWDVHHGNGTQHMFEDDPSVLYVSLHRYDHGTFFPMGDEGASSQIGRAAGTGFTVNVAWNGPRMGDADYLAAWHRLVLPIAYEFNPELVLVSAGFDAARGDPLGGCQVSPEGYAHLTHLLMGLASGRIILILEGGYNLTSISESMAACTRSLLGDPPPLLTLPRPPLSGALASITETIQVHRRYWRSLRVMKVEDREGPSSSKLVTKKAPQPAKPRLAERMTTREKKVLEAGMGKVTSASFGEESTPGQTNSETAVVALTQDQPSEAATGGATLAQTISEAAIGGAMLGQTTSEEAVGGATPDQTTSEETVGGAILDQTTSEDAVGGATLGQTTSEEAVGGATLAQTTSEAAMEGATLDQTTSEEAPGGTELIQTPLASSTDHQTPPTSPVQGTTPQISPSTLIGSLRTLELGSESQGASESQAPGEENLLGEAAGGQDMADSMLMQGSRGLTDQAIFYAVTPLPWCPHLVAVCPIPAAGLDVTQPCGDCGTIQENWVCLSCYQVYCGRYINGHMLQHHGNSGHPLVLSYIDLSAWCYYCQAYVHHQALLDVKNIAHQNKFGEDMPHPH

TNF-α = TNF-α secretion in HL cell supernatants by ELISA; assay type: cell-based, human; conditions: within 24 h of incubation
L428 cells = assay: Apoptosis by annexin-V/propidium iodide FACS, L428; assay type: cell-based, human; conditions: 1 μmol/l, 48 h
KM-H2 cells = assay: Apoptosis by annexin-V/propidium iodide FACS, KM-H2; assay type: cell-based, human; conditions: 1 μmol/l, 48 h
HDAC6 = conditions: ref Fournel et al, 2008; Gloghini et al, 2009; cited from earlier work
HD-LM2 cells = assay: Apoptosis by annexin-V/propidium iodide FACS, HD-LM2; assay type: cell-based, human; conditions: 1 μmol/l, 48 h
HL cell lines = assay: Combination of MGCD0103 with proteasome inhibitors in HL cell lines; assay type: cell-based, human; conditions: 48 h, combination index <1 indicates synergy
NF-kB = assay: p65 NF-kB nuclear translocation by Western blot; assay type: cell-based, human; conditions: bortezomib 20 nmol/l with MGCD0103 1 μmol/l, 24 h
[1] = target: human HDAC3 with human NcoR2 (Homo sapiens, UniProt O15379); assay: HDAC enzyme assay in vitro, HDAC3; conditions: cell-free, purified enzyme
HDACs 1-10 = assay: HDAC enzyme assay in vitro, purified HDAC 1-10 isoforms; conditions: positive control

Sequence of human HDAC3 with human NcoR2 (O15379 whole entry, canonical isoform): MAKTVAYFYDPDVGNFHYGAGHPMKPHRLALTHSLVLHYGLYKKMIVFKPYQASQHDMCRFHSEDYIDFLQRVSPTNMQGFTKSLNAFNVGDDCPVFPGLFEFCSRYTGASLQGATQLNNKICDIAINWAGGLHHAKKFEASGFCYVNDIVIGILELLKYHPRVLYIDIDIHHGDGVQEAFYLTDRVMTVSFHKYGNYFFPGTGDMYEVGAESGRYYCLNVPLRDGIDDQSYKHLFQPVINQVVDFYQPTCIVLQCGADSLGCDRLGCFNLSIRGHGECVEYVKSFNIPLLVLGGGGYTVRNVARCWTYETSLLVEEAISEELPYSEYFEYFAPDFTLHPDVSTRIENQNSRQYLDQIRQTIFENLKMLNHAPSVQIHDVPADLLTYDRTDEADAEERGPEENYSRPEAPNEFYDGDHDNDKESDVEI
Sequence of human HDAC3 with human NcoR2 (Q9Y618 395-489 partner limits assumed): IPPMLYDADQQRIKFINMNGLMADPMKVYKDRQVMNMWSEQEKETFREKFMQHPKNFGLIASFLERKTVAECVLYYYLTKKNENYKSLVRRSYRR

Compound	inhibition of HDAC8 activity (human HDAC8)	percentage of apoptotic cells (L428 cells)	percentage of apoptotic cells (KM-H2 cells)	percentage of apoptotic cells (HD-LM2 cells)	combination effect with MGCD0103 (HL cell lines)	further results
Nc1ccccc1NC(=O)c1ccc(CNc2nccc(-c3cccnc3)n2)cc1 [MGCD0103]	also inhibited the activity	72%	69%	59%	–	effect on HDAC6 activity (human HDAC6): no effect; TNF-α levels in supernatants (TNF-α): profoundly increased; effect on HDAC6 (HDAC6): no effect
C[C@@]12OC(=O)[C@]1([C@@H](O)[C@@H]1C=CCCC1)NC(=O)[C@@H]2CCCl [NPI0052]	–	–	–	–	synergistic activity	–
CC(C)C[C@H](NC(=O)[C@H](Cc1ccccc1)NC(=O)c1cnccn1)B(O)O [bortezomib]	–	–	–	–	synergistic antiproliferative effect	effect on MGCD0103-induced NF-kB activation (NF-kB): inhibited MGCD0103-induced NF-kB activation
O=C(CCCCCCC(=O)Nc1ccccc1)NO [vorinostat, suberoylanilide hydroxamic]	had activity	15%	13.8%	21%	–	inhibition of HDAC3 activity [1]: had activity
Trichostatin A [Trichostatin-A]	–	–	–	–	–	potency against HDACs 1-10 compared with MGCD0103 and vorinostat (HDACs 1-10): higher potency
